Patent publication US11793852B2, “Application of Longhu Rendan in preparing medicament for preventing and/or treating liver fibrosis” (Shanghai Zhonghua Pharmaceutical Co., Ltd, priority 2017, dated 2023)

Columns and labels:
[1] = tested on: mice with liver fibrosis induced by CCl4; assay: Pathological indicators (HE, Sirius Red, α-SMA immunohistochemical staining of livers) in mice with liver fibrosis induced by CCl4; format: in vivo; conditions: silybin 70 mg/kg/d, 6 weeks
Procedure: (§1) Experimental animals: SPF grade C57 mice, 8-week old, half male and half female, supplied by Guangdong Medical Lab Animal Center, housed in an animal room in a barrier environment (SPF grade), and feeds and water and libitum. Certificate [SCXK(YUE) 2013-0002].
(§2) Administration: 32 pills of Longhu Rendan were placed in a mortar and ground, dissolved in 20 mL of 0.5% CMC-Na, pipetted into a 50-mL centrifuge tube, vortexed to be completely dissolved, and made up to 32 mL (solution A). Six 5-ml EP tubes were charged with the solution A per 3 mL/tube (namely, daily dosage for a high-dose group). Another 50-mL tube was charged with 9 ml of the solution A, added with 9 mL 0.5% CMC-Na, and mixed uniformly; and six 5-ml EP tubes were charged with the solution per 3 mL/tube (namely, daily dosage for a medium-dose group). Another 50-mL centrifuge tube was charged with 4.5 ml of the solution A, added with the 0.5% CMC-Na solution to 18 mL, and mixed uniformly; and six 5-ml EP tubes were charged with the solution per 3 mL/tube (namely, daily dosage for a low-dose group). Continue for 6 weeks, 6×32 pills=192 pills in total, about 4 boxes.
Formulation of silybin: one 50-mL centrifuge tube was added with 10 to 12 mL of 0.5% CMC-Na, charged with 4 capsules, dissolved, made up to 20 mL with 0.5% CMC-Na, and mixed uniformly. Six 5-ml EP tubes were charged with the solution per 3 mL/tube (namely, daily dosage). Continue for 6 weeks, 6×4 capsules=24 capsules in total, about 2 boxes.
[…] healthy KM mice were randomly divided into 6 groups with 8 mice/group. Namely: a blank control group, a CCl4 model group, a silybin positive control group, and low, medium, and high dose groups of Longhu Rendan. All groups received a normal diet. […]
HE staining, Sirius Red staining, and smooth muscle actin protein α-SMA immunohistochemical staining. Positive staining areas of Sirius Red staining and immunohistochemical staining were calculated by the ImageJ software, data was processed and plotted by GraphPadPrism, and t-test analysis was performed, where P<0.05 was considered statistically significant.

[2] = tested on: mice with liver fibrosis induced by CCl4; assay: Serological indicators (serum AST and ALT activity) in mice with liver fibrosis induced by CCl4; format: in vivo; conditions: silybin 70 mg/kg/d, gastric perfusion, 6 weeks; compared to the CCl4 group, P<0.05
Procedure: as §1
as §2, with “boxes. […]” for “boxes.”
After fasting for 12 h, the eyeballs were removed and blood was taken and serum was separated. ALT and AST activities were determined by alanine aminotransferase (ALT) and aspartate aminotransferase (AST) kits.

COc1cc(C2Oc3cc([C@H]4Oc5cc(O)cc(O)c5C(=O)[C@@H]4O)ccc3OC2CO)ccc1O (stereo partly shown) [silybin]
degree of fibrosis (Sirius Red staining of mouse livers) [1]: significantly improve the degree of fibrosis
degree of fibrosis (α-SMA immunohistochemical staining of mouse livers) [1]: significantly improve the degree of fibrosis
inflammatory infiltration and liver injury (HE staining of mouse livers) ([1]; compared to the CCl4 model group): improved at different degrees
serum AST activity [2]: significantly reduced
